Experimental data: PubChem BioAssay AID351 (ChemBlock, 2006)
Calls of active or inactive are those of the source.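 Rule for the calls: active = compounds that disrupt early egg division and make hatched embryos spin fast in place instead of swimming forward; inactive = the rest.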

Tested on: sea urchin embryo, cleavage alteration, microscopy
Assay: sea urchin embryo cleavage alteration, tubulin destabilizer project, whole organism, microscopy (AID 351)
Settings: not given

Which threshold concentration does the source give for `CCOc1ccc(Nc2nc(-c3c(C)nc4cc(C)ccn34)cs2)cc1` here?
The threshold concentration was 200 nM.

With `c1ccc(-c2nnc(Nc3ccc4c(c3)OCCO4)o2)c(NCc2ccncc2)c1` as the molecule, how does the threshold concentration read?
The threshold concentration was 0.5 nM.

With `Nc1csnc1-c1nnc(Nc2ccc(Cl)cc2)o1` as the molecule, how does the threshold concentration read?
Its threshold concentration is 200 nM.

For `COc1ccc(NC(=O)C(=O)c2cn(Cc3ccc(Cl)cc3)c3ccccc23)cc1`, which threshold concentration is on record?
The threshold concentration was 50 nM.

For `COC(=O)Nc1nc2ccc(C(=O)c3cccs3)cc2[nH]1`, which threshold concentration is on record?
Its threshold concentration is 5 nM.

For `COc1cc(N)c(-c2nnc(Nc3ccc4c(c3)OCO4)o2)c(OC)c1`, which threshold concentration is on record?
Its threshold concentration is 50 nM.

With `Nc1cc2c(cc1-c1nnc(Nc3ccc4c(c3)OCO4)o1)OCO2` as the molecule, how does the threshold concentration read?
Its threshold concentration is 50 nM.

Which threshold concentration does the source give for `COc1ccc(-c2nnc(Nc3ccc4c(c3)OCCO4)o2)c(N)c1` here?
The threshold concentration was 25 nM.

For `COc1ccc(NC(=O)C(=O)c2c[nH]c3ccccc23)cc1`, which threshold concentration is on record?
Its threshold concentration is 1 nM.

Which threshold concentration does the source give for `O=C(Nc1ccc2c(c1)OCCO2)C(=O)c1cn(Cc2ccc(Cl)cc2)c2ccccc12` here?
The threshold concentration was 100 nM.

For `CCC1=CCN2CCC34c5cc(C6(C(=O)OC)CC7CN(CCc8c6[nH]c6ccccc86)CC(O)(CC)C7)c(OC)cc5N(C)C3C(O)(C(=O)OC)C(OC(C)=O)C1C24` (centres undefined), which threshold concentration is on record?
The threshold concentration was 200 nM.

Which threshold concentration does the source give for `COC(=O)c1[nH]c2ccccc2c1NCc1ccncc1` here?
Its threshold concentration is 500 nM.

With `O=C(Nc1ccc2c(c1)OCO2)C(=O)c1cn(Cc2ccc(Cl)cc2)c2ccccc12` as the molecule, how does the threshold concentration read?
The threshold concentration was 50 nM.

Which threshold concentration does the source give for `Cc1nc2ncccn2c1-c1csc(Nc2ccc(Cl)cc2)n1` here?
Its threshold concentration is 100 nM.

With `CCOc1ccc(Nc2nc(-c3c(C)nc4sccn34)cs2)cc1` as the molecule, how does the threshold concentration read?
Its threshold concentration is 50 nM.

Which threshold concentration does the source give for `Cc1cc(NC(=O)C(=O)c2cn(Cc3ccc(Cl)cc3)c3ccccc23)no1` here?
Its threshold concentration is 10 nM.

With `Cc1nc2sccn2c1-c1csc(Nc2ccc(Cl)cc2)n1` as the molecule, how does the threshold concentration read?
Its threshold concentration is 100 nM.

For `O=C1c2cccc(O)c2C(=O)c2c(O)cc(CO)cc21`, which threshold concentration is on record?
The threshold concentration was 20000 nM.

Which threshold concentration does the source give for `c1cncc(CNc2ccccc2-c2nnc(Nc3ccc4c(c3)OCCO4)o2)c1` here?
Its threshold concentration is 1 nM.

With `COc1cc2c(c(OC)c1OC)-c1ccc(OC)c(=O)cc1C(NC(C)=O)CC2` (centres undefined) as the molecule, how does the threshold concentration read?
Its threshold concentration is 50000 nM.

Tested on: not listed separately
Assay: as above
Settings: sea urchin embryo, cleavage alteration, microscopy

With `Cc1onc(-c2ccccc2Cl)c1C(=O)Nc1cccnc1` as the molecule, how does the outcome read?
The outcome was “inactive; up to 50 µM”.

For `COc1ccc2[nH]c(C)c(CCNC(=O)c3ccc(OC)c(OC)c3)c2c1`, which outcome is on record?
Its outcome is “inactive; up to 50 µM”.

With `O=C(Nc1cccc(C(F)(F)F)c1)c1nscc1NCc1ccc2c(c1)OCO2` as the molecule, how does the outcome read?
The outcome was “inactive; up to 5 µM”.

With `Cc1ccc(Nc2nc(-c3c(C)nc4ccccn34)cs2)c(C)c1` as the molecule, how does the outcome read?
Its outcome is “inactive; up to 5 mM”.

Which outcome does the source give for `O=C(Nc1cccc(C(F)(F)F)c1)C(=O)c1cn(Cc2ccc(Cl)cc2)c2ccccc12` here?
The outcome was “inactive; up to 5 mM”.

For `COc1ccc2[nH]cc(CCN)c2c1`, which outcome is on record?
Its outcome is “inactive; up to 50 µM”.

Which outcome does the source give for `NC(=O)CCNCc1cccnc1` here?
Its outcome is “inactive; up to 10 µM”.

With `O=c1c(O)c(-c2ccc(O)c(O)c2)oc2cc(O)cc(O)c12` as the molecule, how does the outcome read?
Its outcome is “inactive; up to 100 µM”.

With `O=C(Nc1ccc(Br)cc1)C(=O)c1cn(Cc2ccc(Cl)cc2)c2ccccc12` as the molecule, how does the outcome read?
Its outcome is “inactive; up to 5 mM”.

With `COc1ccc(-c2nc(C)n3ccc4cc(OC)c(OC)cc4c23)cc1OC` as the molecule, how does the outcome read?
The outcome was “inactive; up to 10 µM”.

For `COc1cc2ccnc(-c3c[nH]c4cc(OC)c(OC)cc34)c2cc1OC`, which outcome is on record?
The outcome was “inactive; up to 10 µM”.

With `CCOc1ccc(-c2cn[nH]c2N)cc1OCC` as the molecule, how does the outcome read?
Its outcome is “inactive; up to 40 mM”.

For `COc1cc(C(=O)NCCc2c(C)[nH]c3ccc(OC(F)(F)F)cc23)cc(OC)c1OC`, which outcome is on record?
Its outcome is “inactive; up to 50 µM”.

With `NC(=O)C(=O)c1cn(Cc2ccc(Cl)cc2Cl)c2ccccc12` as the molecule, how does the outcome read?
The outcome was “inactive; up to 10 µM”.

With `c1cncc(CNc2cn[nH]c2-c2nnc(Nc3ccc4c(c3)OCO4)o2)c1` as the molecule, how does the outcome read?
The outcome was “inactive; up to 10 µM”.

With `CCOc1cc2c(cc1OCC)C(c1cc(OC)c(OC)c(OC)c1)NCC2` (centres undefined) as the molecule, how does the outcome read?
Its outcome is “inactive; up to 50 µM”.

Which outcome does the source give for `Nc1[nH]ncc1-c1nnc(Nc2ccc3c(c2)OCO3)o1` here?
The outcome was “inactive; up to 20 mM”.

Which outcome does the source give for `Brc1ccc(-c2n[nH]c(-c3[nH]ncc3NCc3ccncc3)n2)cc1` here?
Its outcome is “inactive; up to 20 mM”.

For `c1cc(-c2nc(-c3ccc4c(c3)OCO4)no2)ccn1`, which outcome is on record?
The outcome was “inactive; up to 50 µM”.

With `CCOc1cc2c(cc1OCC)C(c1cc(OC)c(O)c(OC)c1)NCC2` (centres undefined) as the molecule, how does the outcome read?
Its outcome is “inactive; up to 50 µM”.

For `CCOc1ccc(C2=C3c4cc(OCC)c(OCC)cc4CCN3C(=O)C2=O)cc1OCC`, which outcome is on record?
The outcome was “inactive; up to 50 µM”.

With `COc1ccc(Cc2nc(-c3nonc3N)no2)cc1OC` as the molecule, how does the outcome read?
The outcome was “inactive; up to 100 mM”.

For `CS(=O)(=O)c1ccc(Nc2nnc(-c3ccccc3N)o2)cc1`, which outcome is on record?
Its outcome is “inactive; up to 5 mM”.

For `COc1ccc2[nH]cc(CCN3C(=O)OC(C)(C)C3(C)O)c2c1` (centres undefined), which outcome is on record?
Its outcome is “inactive; up to 10 µM”.

With `CCOc1cc(CNc2cccc3[nH]c(C)nc23)ccc1OC` as the molecule, how does the outcome read?
Its outcome is “inactive; up to 50 µM”.

Which outcome does the source give for `O=C(Nc1ccc(Cl)cc1)C(=O)c1cn(Cc2ccc(Cl)cc2)c2ccccc12` here?
The outcome was “inactive; up to 5 mM”.

Which outcome does the source give for `Nc1nc2ccccc2cc1-c1nnc(Nc2ccc3c(c2)OCO3)o1` here?
Its outcome is “inactive; up to 2 mM”.

For `Nc1nonc1-c1nc2ccccc2n1Cc1cccc(F)c1`, which outcome is on record?
The outcome was “inactive; up to 1 mM”.

Which outcome does the source give for `O=C(Nc1ccc(OC(F)(F)F)cc1)C(=O)c1cn(Cc2ccc(Cl)cc2)c2ccccc12` here?
The outcome was “inactive; up to 1 µM”.
